Entries after “also recorded” stand apart in the source; their conditions may differ. Where two headings read alike, the source gives them in different places.
Legend:
HCVcc^G451R = test: Infection of Huh7 cells with SR-B1-independent HCVcc G451R, intracellular HCV RNA; assay type: cell-based, Hepatitis C virus (HCV)
Experimental: (§1) Studies have shown that a G451R mutation in the viral envelope glycoprotein (E2) results in HCV virions of […] density and faster infection kinetics (thong, et al. (2006) J. Virol. 80:11082-11093). […] Thus, if ezetimibe was blocking HCV entry via an SR-B1 mediated mechanism, it would be expected that the mutant G451R virus would be less susceptible to the effects of ezetimibe. As a result, experiments were performed to assess the antiviral efficacy of ezetimibe against the SR-B1-independent HCVcc^G451R virus. Monolayers of Huh7 cells were inoculated with either wild-type HCVcc^JFH-1 or HCVcc^G451R at an MOI of 0.01 FFU/cell for 12 hours. Ezetimibe treatment at concentrations of 15 or 30 μM was initiated (and then continued) either 6 hours prior to infection, during the 12 hour incubation of the virus on the cells, or immediately following the 12 hour viral inoculation period. Ezetimibe at a concentration of 30 μM inhibited HCVcc^JFH-1 infection approximately 10-fold at 48 hours post-infection.

[1] = system: HCV genotype 2a subgenomic replicon; test: HCV sg2a replicon RNA replication in Huh7 cells, RT-qPCR; assay type: cell-based, Hepatitis C virus (HCV); details: 72 hours post-treatment
Source text: Huh7 cells, also known as Huh7/scr cells, are well-known in the art (Zhong, et al. (2005) Proc. Natl. Acad. Sci. USA 102, 9294-99; Gastaminza, et al. (2006) J. Virol. 80:11074-81; Zhong, et al. (2006) J. Virol. 80:11082-93; Sainz et al. (2009) PLoS ONE 4:e6561). […] The HCV sg2a replicon was established as previously described (Uprichard, et al. (2006) Virol. J. 3:89). Briefly the HCV genotype 2a subgenomic replicon RNA (psgJFH1; Kato, et al. (2003) Gastroenterology 125:1808-17) was XbaI linearized, in vitro transcribed using […] T7 (Ambion, Austin, Tex.) and transfected into cells using a modified electroporation protocol (Krieger, et al. (2001) J. Virol. 75(10):4614-24). All cells were cultured in complete Dulbecco's modified Eagle's medium (cDMEM) (Hyclone, Logan, Utah) supplemented with 10% fetal bovine serum (FBS) (Hyclone), 100 units/ml penicillin, […] streptomycin, and 2 mM L-glutamine (Gibco Invitrogen, Carlsbad, Calif.) and 500 μg/ml geneticin ((Invitrogen) for HCV replicon cells only).
Total cellular RNA was purified using an ABI PRISM™ 6100 Nucleic Acid PrepStation (Applied Biosystems), as per the manufacturer's instructions. […] HCV JFH-1 and human GAPDH RNA transcript levels were determined relative to a standard curve derived from serial dilutions of plasmid containing the JFH-1 HCV cDNA or the human GAPDH coding sequence, respectively. […]

HCVcc = test: HCV foci reduction assay, acute HCVcc infection of Huh7 cells; assay type: cell-based, Hepatitis C virus (HCV); details: for inhibition at 12.5 µM / inhibition at 25 µM: Hepatitis C virus, Huh-7, read-out: inhibition of HCV foci formation
Huh7 cells = test: Cytotoxicity assay (adenylate kinase release, TOXILIGHT); assay type: cell-based, human
Source text: The […] Plus Cell Proliferation assay kit (Lonza, Walkersville, Md.), which incorporates bioluminescent detection of cellular ATP as a measure of cell viability and proliferation, was used according to the manufacturer's instructions. Briefly, mock-treated and drug-treated cultures were lysed in Cell Lysis reagent for […]. One hundred μl of culture medium was transferred to white 96-well plates (BD Biosciences) containing ATP detection reagent and luminescence, expressed as relative light units (RLU), was measured (Fluostar OPTIMA). To assess drug-induced cellular toxicity, a bioluminescence-based assay (The TOXILIGHT BioAssay Kit, Lonza) that measures adenylate kinase (AK) released from damaged cells was used as per the manufacturer's instructions. […] One hundred μl of AK detection reagent was then added to each well, and luminescence (RLU) was measured (Fluostar OPTIMA).
To ensure that the inhibition observed was not due to ezetimibe-induced changes in cell proliferation or cytotoxicity, cellular ATP was measured as a read-out of Huh7 cell viability and proliferation and cellular toxicity by adenylate kinase release following treatment with increasing doses of ezetimibe. […] Furthermore, to test the specificity of the observed HCV inhibition, the effect of ezetimibe on entry of another flavivirus, Dengue virus (DNV), was assessed.

HCV [2] = test: Chronic HCV infection treated with IFN-β and ezetimibe, weekly RT-qPCR for 8 weeks; assay type: cell-based, Hepatitis C virus (HCV); details: alone, during 8 weeks
Source text: Intracellular RNA was collected from triplicate wells weekly for 8 weeks post-treatment and HCV RNA was quantified by RT-qPCR.

HCV [3] = test: HCV infection initiation in chimeric mice transplanted with human hepatocytes; assay type: in vivo
wild-type HCVcc^JFH-1 = test: Infection of Huh7 cells with wild-type HCVcc JFH-1, intracellular HCV RNA; assay type: cell-based, Hepatitis C virus (HCV); details: 30 μM, 48 hours post-infection
Experimental: as §1

JFH-1 = test: Infectivity of intracellular virus from naringenin-treated cells; assay type: cell-based, Hepatitis C virus (HCV); details: standard cell-free infection of naïve Huh7-1 cells
Experimental: To determine the nature of the intracellular JFH-1 virion particles which are able to spread from cell-to-cell, even in the absence of secretion, the buoyant density of the accumulated, intracellular particles from naringenin-treated cells were analyzed on iodixanol gradients. It was observed that the peak of RNA from these cells was shifted towards the heavier fractions consistent with the intracellular particles in naringenin-treated cells being less lipidated. Infectivity of the intracellular virus from naringenin-treated cells was reduced by more than 95% in a standard cell-free virus infection of naïve Huh7-1 cells.

[4] = co-incubated with HCVcc for 12 h
[5] = pre-treatment 6 h prior to infection, compared to untreated cultures

Row | Structure (SMILES) | infection blocked (HCVcc^G451R) | sg2a HCV RNA levels [1] | inhibition at 12.5 µM (HCVcc; [4]) | inhibition at 25 µM (HCVcc; [4]) | inhibition at 12.5 µM (HCVcc; [5]) | inhibition at 25 µM (HCVcc; [5]) | degree of inhibition of HCV foci formation (HCVcc; added to cells post-infection) | cellular toxicity (adenylate kinase release) (Huh7 cells; increasing doses) | cytotoxicity (Huh7 cells; treatment of Huh7 cells for 12 hours, concentrations tested) | steady-state intracellular HCV RNA levels (HCV [2]) | HCV infection initiation (HCV [3]) | inhibition of HCVcc JFH-1 infection (wild-type HCVcc^JFH-1) | reduction of infectivity of intracellular virus (JFH-1)
1 | O=C1[C@H](CC[C@H](O)c2ccc(F)cc2)[C@@H](c2ccc(O)cc2)N1c1ccc(F)cc1 [ezetimibe, 1-(4-fluorophenyl)-(3R)-[3-(4-fluorophenyl)-(3S)-hydroxypropyl]-(45)-(4-hydroxyphenyl)-2-azetidinone] | ~100% | did not inhibit HCV subgenomic RNA replication; also recorded: no significant reduction | 90% | 99% | 85% | 95% | greatly reduced | did not inhibit cell proliferation or induce cellular toxicity | not cytotoxic | did not reduce HCV infection | inhibits HCV infection initiation | approximately 10 fold | –
2 | O=C1C[C@@H](c2ccc(O)cc2)Oc2cc(O)cc(O)c21 [naringenin] | – | – | – | – | – | – | – | – | – | – | – | – | more than 95%

Reference: patent US9034863B2, “Compositions and methods for inhibiting entry of a hepatic virus” (The Board of Trustees of the University of Illinois, priority 2008, dated 2015)
